Counter-ions that a name gives are not always drawn.

The record followed here is patent US5143931A, “Leukotriene antagonists containing tetrazolyl groups” (SmithKline Beecham Corporation, priority 1990, dated 1992).

The target in the test is T1, leukotriene induced contraction of guinea pig tracheal tissues (Cavia porcellus, UniProt Q2NNR5).
T1 sequence (Q2NNR5 1-340): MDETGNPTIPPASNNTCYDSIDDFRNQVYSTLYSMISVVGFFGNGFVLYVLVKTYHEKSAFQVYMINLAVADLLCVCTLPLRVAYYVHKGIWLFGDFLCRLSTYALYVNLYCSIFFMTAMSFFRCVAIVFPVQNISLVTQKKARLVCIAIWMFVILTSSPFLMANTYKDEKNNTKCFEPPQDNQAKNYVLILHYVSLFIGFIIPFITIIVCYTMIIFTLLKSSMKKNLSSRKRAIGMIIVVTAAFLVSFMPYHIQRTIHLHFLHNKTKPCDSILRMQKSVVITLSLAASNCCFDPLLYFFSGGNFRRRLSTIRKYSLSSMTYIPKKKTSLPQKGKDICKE
In words: Inhibition of leukotriene (LTD4) induced contraction of guinea pig tracheal spiral strips in vitro. As to conditions: LTD4 concentration-response curves on guinea pig tracheal strips, 30 minutes pretreatment with test compound; current average where tested more than once; read-out: In Vitro -Log K8 (converted).
On to `CCCCCCCCCCCCc1ccccc1C(Sc1nnnn1CC(=O)O)C(=O)O` (stereo not drawn) [2(2-Dodecylphenyl)-2[(1-carboxymethyl-5-tetrazolyl)thio]acetic acid], for which the Kd was 794 nM.
With `CCCCCCCCCCCCc1ccccc1C(Sc1nnnn1C)C(=O)O` (stereo not drawn) [5-tetrazolyl, 0,1-CH3, C12 H25, CO2 H, 2-(2-Dodecylphenyl)-2[(1-methyl-5-tetrazolyl)thio]acetic acid], the Kd was 1580 nM.
Turning to `O=C(O)CCCn1nnnc1SC(C(=O)O)c1ccccc1CCCCCCCCc1ccccc1` (stereo not drawn) [dipotassium salt hydrate], the Kd was 1000 nM.
